Measurements as given in US5770687A, “Comformationally constrained backbone cyclized somatostatin analogs” (Peptor Limited, priority 1996, dated 1998).
Where two headings read alike, the source gives them in different places. Peptide text beside a SMILES is read from it.

Key:
SSTR-3 [1] = target: T1, SSTR-3 (Homo sapiens, UniProt P32745); assay: Radioligand binding, inhibition of 125I-Tyr11-SRIF binding to cloned SSTR-3
Protocol: (§1) The somatostatin analogs were tested for their potency in inhibition of the binding of ^125 I-Tyr^11 -SRIF (based on the method described by Raynor et. al., Molecular Pharmacology 43, 838-844, 1993) to membrane preparations expressing the transmembranal somatostatin receptors (SSTR-1,2,3,4 or 5). The receptor preparations used for these tests were either from the cloned receptors selectively and stably expressed in Chinese Hamster Ovary (CHO) cells or from cell lines naturally expressing the SSTRs. […] The binding reactions were filtered, the filters were washed and the bound radioactivity was counted in gamma counter. […] In order to validate positive signals of the binding tests, and to eliminate non-specific signals, samples of irrelevant peptides, such as GnRH, that were synthesized and handled using the same procedures, were tested in the same assays as negative control samples.

SSTR-1 [2] = target: T2, SSTR-1 (Homo sapiens, UniProt P30872); assay: Radioligand binding, inhibition of 125I-Tyr11-SRIF binding to cloned SSTR-1
Protocol: as §1

SSTR-4 [3] = target: T3, SSTR-4 (Homo sapiens, UniProt P31391); assay: Radioligand binding, inhibition of 125I-Tyr11-SRIF binding to cloned SSTR-4
Protocol: as §1

rat SSTR-5 [4] = target: T4, rat SSTR-5 (Rattus norvegicus, UniProt P30938); assay: Radioligand binding, inhibition of 125I-Tyr11-SRIF binding to cloned rat SSTR-5
T4 sequence (P30938 1-363): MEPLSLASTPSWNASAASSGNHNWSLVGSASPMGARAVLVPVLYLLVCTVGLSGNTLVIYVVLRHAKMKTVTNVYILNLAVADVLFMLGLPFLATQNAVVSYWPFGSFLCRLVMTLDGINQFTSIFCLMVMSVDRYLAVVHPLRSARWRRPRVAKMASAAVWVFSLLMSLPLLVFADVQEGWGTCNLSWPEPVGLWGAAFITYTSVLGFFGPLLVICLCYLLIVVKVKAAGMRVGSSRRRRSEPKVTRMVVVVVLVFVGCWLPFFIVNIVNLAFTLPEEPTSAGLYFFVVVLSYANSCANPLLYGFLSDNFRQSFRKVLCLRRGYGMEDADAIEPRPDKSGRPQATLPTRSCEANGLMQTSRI
Protocol: as §1

human SSTR-5 [5] = target: T5, human SSTR-5 (Homo sapiens, UniProt P35346); assay: Radioligand binding, inhibition of 125I-Tyr11-SRIF binding to cloned human SSTR-5
Protocol: as §1

SSTR-4 [6] = target: T3, SSTR-4; settings: Table 22; known SST analogs, literature values; cited from earlier work
rat SSTR-5 [7] = target: T4, rat SSTR-5; settings: Table 22; known SST analogs, literature values; read-out: IC50 value rSSTR 5; cited from earlier work
human SSTR-5 [8] = target: T5, human SSTR-5; settings: Table 22; known SST analogs, literature values; read-out: IC50 value hSSTR 5; cited from earlier work
SSTR-1 [9] = target: T2, SSTR-1; settings: Table 22; known SST analogs, literature values; cited from earlier work
SSTR-3 [10] = target: T1, SSTR-3; settings: Table 22; known SST analogs, literature values; cited from earlier work
SSTR-2 = settings: Table 22; known SST analogs, literature values; cited from earlier work

T3 sequence (P31391 whole entry, species assumed): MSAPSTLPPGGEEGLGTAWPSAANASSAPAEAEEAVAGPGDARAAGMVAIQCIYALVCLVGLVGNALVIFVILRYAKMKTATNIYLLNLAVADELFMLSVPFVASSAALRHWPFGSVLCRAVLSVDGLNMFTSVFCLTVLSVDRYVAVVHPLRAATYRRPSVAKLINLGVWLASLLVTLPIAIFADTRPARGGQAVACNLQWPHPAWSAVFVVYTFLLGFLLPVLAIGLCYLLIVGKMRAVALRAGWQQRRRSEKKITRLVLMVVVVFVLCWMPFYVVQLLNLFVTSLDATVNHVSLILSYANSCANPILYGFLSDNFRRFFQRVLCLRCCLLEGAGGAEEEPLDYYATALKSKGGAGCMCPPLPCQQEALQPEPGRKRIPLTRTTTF
T5 sequence (P35346 whole entry): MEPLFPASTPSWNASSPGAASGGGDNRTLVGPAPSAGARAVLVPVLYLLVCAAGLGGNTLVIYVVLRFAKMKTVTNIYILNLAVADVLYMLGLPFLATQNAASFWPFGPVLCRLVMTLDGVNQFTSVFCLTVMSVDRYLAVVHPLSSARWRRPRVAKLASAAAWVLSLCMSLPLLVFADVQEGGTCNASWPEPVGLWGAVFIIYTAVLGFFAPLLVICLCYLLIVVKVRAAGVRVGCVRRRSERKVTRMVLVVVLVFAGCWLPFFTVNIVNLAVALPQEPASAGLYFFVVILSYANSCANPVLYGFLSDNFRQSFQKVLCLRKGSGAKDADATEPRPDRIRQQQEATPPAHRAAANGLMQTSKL
T1 sequence (P32745 whole entry, species assumed): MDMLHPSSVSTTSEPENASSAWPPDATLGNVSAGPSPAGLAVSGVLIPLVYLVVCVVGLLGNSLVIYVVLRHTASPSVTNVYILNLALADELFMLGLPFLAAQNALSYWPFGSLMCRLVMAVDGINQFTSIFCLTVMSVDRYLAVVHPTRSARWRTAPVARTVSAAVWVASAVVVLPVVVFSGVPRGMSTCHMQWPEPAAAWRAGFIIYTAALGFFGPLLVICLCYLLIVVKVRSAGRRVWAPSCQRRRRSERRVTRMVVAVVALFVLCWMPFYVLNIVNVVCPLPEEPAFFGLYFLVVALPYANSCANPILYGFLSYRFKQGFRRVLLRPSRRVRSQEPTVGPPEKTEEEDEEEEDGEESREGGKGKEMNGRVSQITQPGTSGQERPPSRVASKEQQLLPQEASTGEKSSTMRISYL
T2 sequence (P30872 whole entry, species assumed): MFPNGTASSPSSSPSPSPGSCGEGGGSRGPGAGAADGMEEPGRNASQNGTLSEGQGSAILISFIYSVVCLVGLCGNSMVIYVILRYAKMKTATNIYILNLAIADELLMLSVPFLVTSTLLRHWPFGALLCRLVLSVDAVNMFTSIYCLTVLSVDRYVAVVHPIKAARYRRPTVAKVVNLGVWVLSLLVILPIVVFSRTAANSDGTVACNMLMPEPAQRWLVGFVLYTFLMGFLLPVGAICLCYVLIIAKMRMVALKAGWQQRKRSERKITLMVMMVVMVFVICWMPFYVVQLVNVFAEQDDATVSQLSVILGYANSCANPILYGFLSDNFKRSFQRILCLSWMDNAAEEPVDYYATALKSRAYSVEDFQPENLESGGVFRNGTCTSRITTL

Molecule	IC50 (SSTR-3 [1]) [nM]	IC50 (SSTR-1 [2]) [nM]	IC50 (SSTR-4 [3]) [nM]	IC50 (rat SSTR-5 [4]) [nM]	IC50 (human SSTR-5 [5]) [nM]	IC50 (SSTR-4 [6]) [nM]	IC50 (rat SSTR-5 [7]) [nM]	IC50 (human SSTR-5 [8]) [nM]	IC50 (SSTR-1 [9]) [nM]	IC50 (SSTR-3 [10]) [nM]	IC50 (SSTR-2) [nM]
C[C@@H](O)[C@H](NC(=O)CN1CCC(=O)NCCCN(C(=O)[C@H](N)Cc2ccccc2)CC(=O)N[C@@H](Cc2ccccc2)C(=O)N[C@H](Cc2c[nH]c3ccccc23)C(=O)N[C@@H](CCCCN)C(=O)N[C@@H]([C@@H](C)O)C1=O)C(N)=O [PTR 3010] (HELM PEPTIDE1{[dF].[O=C(CN(CCCN[*:3])[*:1])[*:2]].F.[dW].K.T.[O=C(CN(CCC(=O)[*:3])[*:1])[*:2]].T.[am]}$PEPTIDE1,PEPTIDE1,2:R3-7:R3$$$V2.0)	> 1000	2500	> 10000	500	> 2000						
DPhe^5 -Phe^6 -Phe^7 -DTrp^8 -Lys^9 -Thr^10 -Phe^11 -Thr^12 -NH2 [BIM-23052]						18	0.004	4			
CC(C)[C@@H]1NC(=O)[C@H](CCCCN)NC(=O)[C@@H](Cc2c[nH]c3ccccc23)NC(=O)[C@H](Cc2ccc(O)cc2)NC(=O)[C@@H](NC(=O)[C@H](N)Cc2ccc3ccccc3c2)CSSC[C@@H](C(=O)N[C@H](C(N)=O)[C@@H](C)O)NC1=O [Somatuline]							0.5		800	6	2
